Measured values reported in ChEMBL document CHEMBL5647692, “The novel dual PI3K/mTOR inhibitor NVP-BGT226 displays cytotoxic activity in both normoxic and hypoxic hepatocarcinoma cells” (Oncotarget, 2015).
Calls of active or inactive are those of the source. No cut-off for these calls is given here.

Experiments:
SNU-449 [1] = test: Cytotoxicity against human SNU-449 cells assessed as reduction in cell viability incubated for 24 hrs under hypoxia condition by MTT assay; assay type: functional, cell-based
Mahlavu [2] = test: Cytotoxicity against human Mahlavu cells assessed as reduction in cell viability at 0.5 uM incubated for 24 hrs in presence of 3-Methyladenine by MTT assay; assay type: functional, cell-based
Mahlavu [3] = test: Induction of apoptosis in human Mahlavu cells assessed as late apoptotic cells at 0.66 uM incubated for 24 hrs by Annexin-V/7-AAD staining based muse cell analyzer method (reference value: 2.24 %); assay type: functional
[4] = Inhibition of PI3K/Akt/mTOR signaling pathway in human Hep3B cells assessed as reduction in phosphorylation of Akt incubated for 1 hr under normoxia condition by Western blotting analysis; assay type: cell-based; conditions: dose 0.25-1 µM
[5] = Inhibition of PI3K/Akt/mTOR signaling pathway in human SNU-449 cells assessed as reduction in phosphorylation of mTORC1 substrate S6 incubated for 1 hr under normoxia condition by Western blotting analysis; assay type: cell-based; conditions: dose 0.25-1 µM
Mahlavu [6] = test: Induction of cell cycle arrest in human Mahlavu cells assessed as decrease in accumulation of cells in G2/M phase incubated at 0.01 to 0.1 uM for 24 hrs by propidium iodide staining based muse cell analysis; assay type: functional; conditions: dose 0.01-0.1 µM
SNU-475 [7] = test: Cytotoxicity against human SNU-475 cells assessed as reduction in cell viability at 0.5 uM incubated for 24 hrs in presence of 3-Methyladenine by MTT assay; assay type: functional, cell-based
[8] = Inhibition of PI3K/Akt/mTOR signaling pathway in human SNU-475 cells assessed as reduction in phosphorylation of mTORC1/2 incubated for 1 hr under normoxia condition by Western blotting analysis; assay type: cell-based; conditions: dose 0.25-1 µM
Hep 3B2 [9] = test: Induction of apoptosis in human Hep3B cells assessed as cleaved PARP level at 0.5 uM incubated for 24 hrs by Western blotting analysis; assay type: functional, cell-based
[10] = Inhibition of PI3K/Akt/mTOR signaling pathway in human SNU-475 cells assessed as reduction in S6 phosphorylation at 1 to 10 nM incubated for 1 hr under hypoxia condition by Western blotting analysis; assay type: cell-based; conditions: dose 1-10 nM
[11] = Inhibition of PI3K/Akt/mTOR signaling pathway in human SNU-475 cells assessed as reduction in phosphorylation of mTORC1 substrate S6 incubated for 1 hr under normoxia condition by Western blotting analysis; assay type: cell-based; conditions: dose 0.25-1 µM
Mahlavu [12] = test: Induction of apoptosis in human Mahlavu cells assessed as cleaved Caspase 7 level at 0.5 uM incubated for 24 hrs by Western blotting analysis; assay type: functional, cell-based
HepG2 [13] = test: Cytotoxicity against human HepG2 cells assessed as reduction in cell viability at 0.5 to 5 uM incubated for 24 hrs by MTT assay; assay type: functional, cell-based; conditions: dose 0.5-5 µM
Mahlavu [14] = test: Induction of autophagy in human Mahlavu cells assessed as reduction in SQSTM1/p62 level by Western blot analysis; assay type: functional, cell-based; conditions: dose 0.1-0.5 µM
[15] = biological target: Hypoxia-inducible factor 1-alpha (Homo sapiens) (UniProt Q16665); test: Inhibition of HIF-1alpha in human Mahlavu cells incubated for 6 hrs under hypoxia condition by Western blot analysis; assay type: cell-based; conditions: dose 0.01-0.1 µM
Mahlavu [16] = test: Cytotoxicity against human Mahlavu cells assessed as reduction in cell viability at 0.5 uM incubated for 24 hrs in presence of chloroquine by MTT assay; assay type: functional, cell-based
[17] = Inhibition of PI3K/Akt/mTOR signaling pathway in human Mahlavu cells assessed as reduction in phosphorylation of Akt incubated for 1 hr under normoxia condition by Western blotting analysis; assay type: cell-based; conditions: dose 0.25-1 µM
Mahlavu [18] = test: Induction of apoptosis in human Mahlavu cells assessed as cleaved PARP level at 0.5 uM incubated for 24 hrs by Western blotting analysis; assay type: functional, cell-based
SNU-475 [19] = test: Cytotoxicity against human SNU-475 cells assessed as reduction in cell viability incubated for 48 hrs by MTT assay; assay type: functional, cell-based; conditions: SNU-475, 48 h
[20] = Inhibition of PI3K/Akt/mTOR signaling pathway in human Hep3B cells assessed as reduction in phosphorylation of mTORC1/2 incubated for 1 hr under normoxia condition by Western blotting analysis; assay type: cell-based; conditions: dose 0.25-1 µM
Mahlavu [21] = test: Cytotoxicity against human Mahlavu cells assessed as reduction in cell viability incubated for 24 hrs under normoxia condition by MTT assay; assay type: functional, cell-based
HepG2 [22] = test: Cytotoxicity against human HepG2 cells assessed as reduction in cell viability at 0.5 uM incubated for 24 hrs in presence of 3-Methyladenine by MTT assay; assay type: functional, cell-based
[23] = Inhibition of PI3K/Akt/mTOR signaling pathway in human SNU-475 cells assessed as reduction in phosphorylation of Akt incubated for 1 hr under normoxia condition by Western blotting analysis; assay type: cell-based; conditions: dose 0.25-1 µM
Mahlavu [24] = test: Induction of apoptosis in human Mahlavu cells assessed as early apoptotic cells at IC50 incubated for 24 hrs in presence of Z-VAD-fmk by Annexin-V/7-AAD staining based muse cell analyzer method (reference value: 6.57 %); assay type: functional
Mahlavu [25] = test: Cytotoxicity against human Mahlavu cells assessed as reduction in cell viability incubated for 48 hrs by MTT assay; assay type: functional, cell-based
SNU-475 [26] = test: Induction of apoptosis in human SNU-475 cells assessed as cleaved Caspase 7 level at 0.5 uM incubated for 24 hrs by Western blotting analysis; assay type: functional, cell-based
[27] = biological target: Hypoxia-inducible factor 1-alpha (Homo sapiens) (UniProt Q16665); test: Inhibition of HIF-1alpha in human Hep3B cells incubated for 6 hrs under hypoxia condition by Western blot analysis; assay type: cell-based; conditions: dose 0.01-0.1 µM
SNU-449 [28] = test: Induction of apoptosis in human SNU-449 cells assessed as viable cells at 1.5 uM incubated for 24 hrs by Annexin-V/7-AAD staining based muse cell analyzer method (reference value: 90.07 %); assay type: functional; conditions: read-out: Activity
Hep 3B2 [29] = test: Cytotoxicity against human Hep3B cells assessed as reduction in cell viability incubated for 48 hrs by MTT assay; assay type: functional, cell-based
Mahlavu [30] = test: Cytotoxicity against human Mahlavu cells assessed as reduction in cell viability incubated for 24 hrs under hypoxia condition by MTT assay; assay type: functional, cell-based
Hep 3B2 [31] = test: Cytotoxicity against human Hep3B cells assessed as reduction in cell viability at 0.5 to 5 uM incubated for 24 hrs by MTT assay; assay type: functional, cell-based; conditions: dose 0.5-5 µM
[32] = Inhibition of PI3K/Akt/mTOR signaling pathway in human HepG2 cells assessed as reduction in phosphorylation of mTORC1/2 incubated for 1 hr under normoxia condition by Western blotting analysis; assay type: cell-based; conditions: dose 0.25-1 µM
[33] = Inhibition of PI3K/Akt/mTOR signaling pathway in human Hep3B cells assessed as reduction in phosphorylation of GSK3 alpha/beta incubated for 1 hr under normoxia condition by Western blotting analysis; assay type: cell-based; conditions: dose 0.25-1 µM
Mahlavu [34] = test: Anti-tumor activity against human Mahlavu cells assessed as reduction of VEGF level incubated for 24 hrs under hypoxia condition by Western blot analysis; assay type: functional, cell-based; conditions: dose 0.01-0.1 µM
Hep 3B2 [35] = test: Induction of cell cycle arrest in human Hep3B cells assessed as decrease in accumulation of cells in G2/M phase incubated at 0.01 to 0.1 uM for 24 hrs by propidium iodide staining based muse cell analysis; assay type: functional; conditions: dose 0.01-0.1 µM
[36] = Inhibition of PI3K/Akt/mTOR signaling pathway in human Mahlavu cells assessed as reduction in phosphorylation of mTORC1 substrate S6 incubated for 1 hr under normoxia condition by Western blotting analysis; assay type: cell-based; conditions: dose 0.25-1 µM
[37] = Inhibition of PI3K/Akt/mTOR signaling pathway in human Mahlavu cells assessed as reduction in S6 phosphorylation at 1 to 10 nM incubated for 1 hr under hypoxia condition by Western blotting analysis; assay type: cell-based; conditions: dose 1-10 nM

Hypoxia-inducible factor 1-alpha (Homo sapiens), sequence (Q16665 whole entry, looked up): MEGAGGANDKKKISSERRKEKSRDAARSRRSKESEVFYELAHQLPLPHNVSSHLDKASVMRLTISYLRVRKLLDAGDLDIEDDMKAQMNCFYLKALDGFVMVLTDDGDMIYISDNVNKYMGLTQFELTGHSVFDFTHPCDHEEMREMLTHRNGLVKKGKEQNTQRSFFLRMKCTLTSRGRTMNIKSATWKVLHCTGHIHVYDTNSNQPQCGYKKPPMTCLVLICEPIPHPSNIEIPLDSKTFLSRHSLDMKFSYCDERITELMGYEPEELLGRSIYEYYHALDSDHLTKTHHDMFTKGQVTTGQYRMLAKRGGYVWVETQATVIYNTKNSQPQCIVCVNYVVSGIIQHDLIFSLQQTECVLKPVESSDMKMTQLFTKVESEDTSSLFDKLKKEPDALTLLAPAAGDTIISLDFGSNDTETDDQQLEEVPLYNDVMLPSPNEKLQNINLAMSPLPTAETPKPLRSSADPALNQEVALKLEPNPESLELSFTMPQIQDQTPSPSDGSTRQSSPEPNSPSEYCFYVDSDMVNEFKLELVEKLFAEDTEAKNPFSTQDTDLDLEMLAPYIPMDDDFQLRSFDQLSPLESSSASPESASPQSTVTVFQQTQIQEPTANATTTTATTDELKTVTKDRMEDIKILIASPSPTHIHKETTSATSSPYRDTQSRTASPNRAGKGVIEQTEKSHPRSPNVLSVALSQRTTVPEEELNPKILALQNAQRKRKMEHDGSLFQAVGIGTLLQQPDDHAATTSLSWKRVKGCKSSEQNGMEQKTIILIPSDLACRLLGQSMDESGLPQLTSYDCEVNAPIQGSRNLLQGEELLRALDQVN

## COc1ccc(-c2ccc3ncc4c(c3c2)n(-c2ccc(N3CCNCC3)c(C(F)(F)F)c2)c(=O)n4C)cn1 [BGT-226 FREE BASE]
SNU-449 [1]
  Activity: Active
Mahlavu [2]
  Activity: Active
Mahlavu [3]
  Activity: 1.99%
[4]
  inhibition: Dose-Dependent Effect
[5]
  inhibition: Dose-Dependent Effect
Mahlavu [6]
  Activity: Active
SNU-475 [7]
  Activity: Active
[8]
  inhibition: Dose-Dependent Effect
Hep 3B2 [9]
  Activity: Active
[10]
  inhibition: Active
[11]
  inhibition: Dose-Dependent Effect
Mahlavu [12]
  Activity: Active
HepG2 [13]
  Activity: Active
Mahlavu [14]
  Activity: Dose-Dependent Effect
[15]
  inhibition: Dose-Dependent Effect
Mahlavu [16]
  Activity: Active
[17]
  inhibition: Dose-Dependent Effect
Mahlavu [18]
  Activity: Active
SNU-475 [19]
  IC50: 1.01 µM
[20]
  inhibition: Dose-Dependent Effect
Mahlavu [21]
  Activity: Active
HepG2 [22]
  Activity: Active
[23]
  inhibition: Dose-Dependent Effect
Mahlavu [24]
  Activity: 11.97%
Mahlavu [25]
  IC50: 0.55 µM
SNU-475 [26]
  Activity: Active
[27]
  inhibition: Dose-Dependent Effect
SNU-449 [28]
  viability at 1.5 µM: 48.6%
Hep 3B2 [29]
  IC50: 1.22 µM
Mahlavu [30]
  Activity: Active
Hep 3B2 [31]
  Activity: Active
[32]
  inhibition: Dose-Dependent Effect
[33]
  inhibition: Dose-Dependent Effect
Mahlavu [34]
  Activity: Dose-Dependent Effect
Hep 3B2 [35]
  Activity: Active
[36]
  inhibition: Dose-Dependent Effect
[37]
  inhibition: Active
